Measurements taken from the supplement of paper PMC10307832.

Tests used:
Test in all cases: relative viability (nuclei count vs DMSO), 5 days (fraction); higher = more cells survive
[1] = compound: O=C(NCCCNc1nc(Nc2cccc(NC(=O)N3CCCC3)c2)ncc1I)c1cccs1 [BX 795] + CC(=O)Nc1cccc(-n2c(=O)n(C3CC3)c(=O)c3c(Nc4ccc(I)cc4F)n(C)c(=O)c(C)c32)c1 [Trametinib] (partner 0.02 µM)
In short: (§1)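 Relative viability was taken as the ratio of nuclei in treated wells to nuclei in vehicle wells. Lung cancer cell lines in 1536-well plates received compounds by pin tool one day after seeding, either one drug alone or a fixed anchor-drug dose plus five library-drug doses (not always all listed) in √10 steps. Nuclei were counted on 4× images after 5 days of treatment, and values are medians of duplicate plates.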

[2] = compound: O=C(NCCCNc1nc(Nc2cccc(NC(=O)N3CCCC3)c2)ncc1I)c1cccs1 [BX 795] + CCNC(=O)c1noc(-c2cc(C(C)C)c(O)cc2O)c1-c1ccc(CN2CCOCC2)cc1 [Luminespib] (partner 0.01 µM)
In short: as §1

[3] = compound: O=C(NCCCNc1nc(Nc2cccc(NC(=O)N3CCCC3)c2)ncc1I)c1cccs1 [BX 795] + CS(=O)(=O)N1CCN(Cc2cc3nc(-c4cccc5[nH]ncc45)nc(N4CCOCC4)c3s2)CC1 [Pictilisib] (partner 1 µM)
In short: as §1

[4] = compound: O=C(NCCCNc1nc(Nc2cccc(NC(=O)N3CCCC3)c2)ncc1I)c1cccs1 [BX 795] + C[C@@H](Oc1cc(-c2cnn(C3CCNCC3)c2)cnc1N)c1c(Cl)ccc(F)c1Cl [Crizotinib] (partner 1 µM)
In short: as §1

[5] = compound: O=C(NCCCNc1nc(Nc2cccc(NC(=O)N3CCCC3)c2)ncc1I)c1cccs1 [BX 795] + CC1(C)CCC(c2ccc(Cl)cc2)=C(CN2CCN(c3ccc(C(=O)NS(=O)(=O)c4ccc(N[C@H](CCN5CCOCC5)CSc5ccccc5)c(S(=O)(=O)C(F)(F)F)c4)cc3)CC2)C1 [Navitoclax] (partner 0.5 µM)
In short: as §1

Cell Line	relative viability ([1]; first compound 0.04 µM)	relative viability ([1]; first compound 0.1265 µM)	relative viability ([1]; first compound 0.4 µM)	relative viability ([1]; first compound 1.265 µM)	relative viability ([2]; first compound 0.04 µM)	relative viability ([2]; first compound 0.1265 µM)	relative viability ([2]; first compound 0.4 µM)	relative viability ([2]; first compound 1.265 µM)	relative viability ([3]; first compound 0.04 µM)	relative viability ([3]; first compound 0.1265 µM)	relative viability ([3]; first compound 0.4 µM)	relative viability ([3]; first compound 1.265 µM)	relative viability ([4]; first compound 0.04 µM)	relative viability ([4]; first compound 0.1265 µM)	relative viability ([4]; first compound 0.4 µM)	relative viability ([4]; first compound 1.265 µM)	relative viability ([5]; first compound 0.04 µM)	relative viability ([5]; first compound 0.1265 µM)	relative viability ([5]; first compound 0.4 µM)	relative viability ([5]; first compound 1.265 µM)
201T	0.763	0.749	0.76	0.766	1.03	1.07	1.19	1.04	0.689	0.679	0.721	0.68	1.06	1.03	1.1	1.03	1.18	1.21	1.24	1.21
A-427	0.757	0.733	0.72	0.625	0.779	0.866	0.643	0.665	0.723	0.805	0.651	0.585	0.906	0.924	0.771	0.446	0.97	1.02	1.01	0.788
ABC-1	–	–	–	–	0.445	0.381	0.334	0.283	0.507	0.555	0.634	0.661	1.2	1.23	1.03	0.3	–	–	–	–
BEN	1.12	1.12	0.933	1.13	0.458	0.432	0.351	0.312	0.542	0.587	0.533	0.715	0.984	1.02	0.787	0.821	0.0771	0.0586	0.0606	0.0858
CAL-12T	0.273	0.298	0.322	0.24	0.534	0.488	0.194	0.181	0.543	0.452	0.368	0.32	0.562	0.426	0.309	0.333	1.08	1.23	1.25	0.497
COR-L23	0.622	0.628	0.509	0.344	0.576	0.573	0.71	0.197	0.909	0.899	0.75	0.538	0.724	0.703	0.466	0.204	1.15	1.02	1.02	0.524
COR-L 105	0.47	0.403	0.389	0.421	0.879	0.835	0.788	0.849	0.376	0.381	0.359	0.328	0.789	0.588	0.56	0.279	0.795	0.583	0.652	0.39
ChaGo-K-1	0.924	0.907	0.885	0.75	0.503	0.523	0.602	0.492	0.615	0.52	0.735	0.776	1.11	1.14	1.05	0.961	0.817	0.919	0.933	0.982
EKVX	0.358	0.298	0.382	0.351	0.893	0.977	0.825	0.79	0.401	0.455	0.421	0.466	1.04	0.867	0.732	0.753	0.703	1.02	0.851	0.896
EMC-BAC-2	0.943	0.921	0.868	0.749	1.18	1.22	1.13	0.492	0.533	0.488	0.479	0.415	0.724	0.733	0.631	0.525	1.18	1.24	1.24	0.906
EPLC-272H	0.293	0.32	0.275	0.325	0.342	0.187	0.158	0.292	0.364	–	0.308	0.304	0.984	–	0.922	0.813	1.14	–	1.27	1.12
H3255	0.616	0.666	0.655	0.565	0.891	0.852	0.979	0.891	0.533	0.475	0.498	0.428	0.903	0.831	0.852	0.644	0.663	0.484	0.694	0.527
HARA	0.75	0.625	1.16	0.533	0.588	0.838	0.907	0.656	0.403	0.412	0.496	0.474	1.21	1.06	1	0.601	1.13	1.13	1.24	1.13
HCC-15	0.389	0.381	0.505	0.355	0.346	0.298	0.298	0.408	0.71	0.779	0.968	0.744	0.784	0.883	0.743	0.461	0.751	0.7	0.756	0.53
HCC-44	1.14	1.08	1.23	1.12	0.98	1.37	0.497	0.58	0.55	0.672	0.681	0.594	0.811	0.876	0.973	0.581	0.872	1.05	1.02	0.708
HCC-78	0.823	0.756	0.797	0.737	–	–	–	–	0.236	0.206	0.154	0.218	0.413	0.354	0.355	0.318	0.857	0.926	0.792	0.718
